Data set [1] can be described thus: In vivo epimerization and PK, statements covering all three preclinical models. Set-up: species or system Sprague Dawley rats, beagle dogs, cynomolgus monkeys. On the procedure: These factors may lead to accumulation and potenial toxicity. The effect on epimerization by substitution at the chiral carbon was tested by comparing Example A, Example 1, and Example 29 in the following preclinical in vivo pharmacokinetic models: Sprague Dawley rats, beagle dogs, and cynomolgus monkeys.
Two groups of male Sprague Dawley rats (n=3 each) received either a single 10 mg/kg PO dose of Example A or Example 1 in a vehicle consisting of 0.5% methylcellulose in water. Blood samples were collected at 0.25, 0.5, 1, 2, 4, and 6 hours postdose.
Male Sprague Dawley rats (n=3 each) received a single 3 mg/kg PO dose of Example 29 in a vehicle consisting of 5% dimethylacetamide (DMAC) in 50 mM citrate buffer w/0.5% methylcellulose. Blood samples were collected at predose, 0.25, 0.5, 1, 2, 4, 6, 8, 12, and 24 hours postdose.
Three groups of male cynomolgus monkeys (n=2 each) received either a single 3 mg/kg PO dose of Example A, Example 1, or Example 29 in a vehicle consisting of 5% dimethylacetamide (DMAC) in 50 mM citrate buffer w/0.5% methylcellulose. Blood samples were collected at predose, 0.25, 0.5, 1, 2, 3, 4, 6, 8, 12, and 24 hours postdose.
Three groups of male beagle dogs (n=2 each) received either a single 3 mg/kg PO dose of Example A, Example 1, or Example 29 in a vehicle consisting of 5% dimethylacetamide (DMAC) in 50 mM citrate buffer w/0.5% methylcellulose. Blood samples were collected at predose, 0.25, 0.5, 1, 2, 3, 4, 6, 8, 12, 24 and 48 hours postdose.
All blood samples were collected using EDTA as the anticoagulant and centrifuged to obtain plasma. Plasma concentrations of Example A, Example 1, and their respective diastereomers were determined under non-GLP conditions using standard reverse phase LC-MS/MS bioanalytical methods. The individual plasma concentration-time data was used to determine the area under the curve (AUC) values using GraphPad Prism (v9.3.1).

For data set [2], the system named is experimental autoimmune encephalomyelitis (EAE) mouse model. Nature of the data set: Experimental autoimmune encephalomyelitis (EAE) mouse model. The data set is classed as in vivo, mice. The following applies: for disease score (EAE severity score): compared to vehicle. On the procedure:
The EAE model was used to evaluate the potential of SPPL2a inhibition in an in vivo mouse model of autoimmune disease. In this study, EAE was induced in female mice, aged 7-9 weeks, using an EAE induction kit (EK-2160, Hooke Labs) containing human recombinant MOG 1 125 antigen emulsified in CFA. EAE severity score was measured on a scale of 0-6 as per the IACUC approved protocol for 20 days. Mice were treated orally with the SPPL2a inhibitor Example A at 15 mg/kg and 30 mg/kg twice daily (first dose given on the same day prior to immunization). Animals were euthanized and tissues, plasma, and serum were collected for further analysis.
Anti-mouse MOG antibodies were measured in the serum of mice using quantitative ELISA kit (AS-55156, AnaSpec). […] All data is presented as mean+SEM. For comparison of more than two groups, ANOVA was used. All statistical analysis was performed using GraphPad Prism™ 10 or higher.

Data set [3] has as its system Collagen-Induced Arthritis (CIA) mouse model. As to the kind of experiment: Collagen-induced arthritis (CIA) mouse model. The data set is classed as in vivo, DBA-1 mice. The following applies: 50 mg/kg dose, compared to the vehicle. An excerpt: Female DBA-1 mice (8-9 weeks old) were used in the CIA mouse model. This model is widely used to evaluate efficacy of immunomodulatory drugs on autoimmune diseases, such as arthritis. DBA/1 mice develop collagen-induced arthritis (CIA) after immunization with bovine type II collagen emulsified in complete Freund's adjuvant (CFA), followed by a booster dose 21 days later. Both the immunizations were given subcutaneously, approximately 25 mm from the base of the tail on opposite sides. Immunizations were performed under a short duration isoflurane anesthesia. Mice were evaluated for the disease progression up to 45 days. […] Statistical significance was determined using Two-way ANOVA with multiple comparison tests to compare all groups to the vehicle.

Another data set has as its target T1, human SPPL2a (Homo sapiens, UniProt Q8TCT8).
T1 construct: expressed in transfected cells; host or cells: U2OS (SPPL2a reporter cell line)
T1 sequence (Q8TCT8 26-520): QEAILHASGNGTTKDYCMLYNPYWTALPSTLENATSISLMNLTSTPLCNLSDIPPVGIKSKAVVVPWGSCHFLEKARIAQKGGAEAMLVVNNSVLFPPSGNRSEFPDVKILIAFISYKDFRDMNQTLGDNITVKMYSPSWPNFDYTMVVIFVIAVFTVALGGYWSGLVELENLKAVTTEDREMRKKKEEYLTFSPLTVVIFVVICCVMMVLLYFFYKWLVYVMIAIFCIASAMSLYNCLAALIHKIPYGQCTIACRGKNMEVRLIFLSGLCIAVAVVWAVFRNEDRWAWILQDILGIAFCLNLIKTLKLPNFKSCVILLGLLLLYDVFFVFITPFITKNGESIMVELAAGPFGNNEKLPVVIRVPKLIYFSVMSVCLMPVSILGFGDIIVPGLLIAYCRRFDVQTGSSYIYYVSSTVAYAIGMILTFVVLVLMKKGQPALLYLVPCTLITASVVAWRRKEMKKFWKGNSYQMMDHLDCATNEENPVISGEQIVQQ
Nature of the data set: Nuclear translocation imaging assay for human SPPL2a (SPPL2a reporter U2OS cell line). The class given is cell-based. The following applies: U2OS reporter cells, 24 h incubation. On the procedure:
The nuclear translocation imaging assays for human SPPL2a were performed using an SPPL2a reporter U2OS cell line as previously described (Velcicky et al 2018, Zhang et al 2017). These cells stably express human SPPL2a and a doxycycline inducible eGFP TNFα (aa 1-76) NTF fusion protein (SPPL2a substrate). Both Example 1 and Example A were added at indicated concentrations and cells were incubated for 24 h, washed, and fixed. Nuclei were stained with DAPI. Images were acquired on a confocal fluorescence microscope system LSM-800 (Carl Zeiss). Image data was analyzed by using mid-section from Z-stack images of at least 10 individual cells per sample. All data is presented as mean+SEM. Statistical significance was calculated with the ANOVA test using GraphPad Prism™ 10.

Entries after “also recorded” stand apart in the source; their conditions may differ.

Regarding `CNC(=O)c1nc(C)c(C(=O)NC[C@@H](C)C(=O)N[C@@H]2C(=O)N3CCCN3Cc3ccccc32)s1` [Example A, N^2,4-dimethyl-N^5—((R)-2-methyl-3-oxo-3-(((S)-11-oxo-2,3,10,11-tetrahydro-1H,5H-benzo[d]pyrazolo[1,2-a][1,2]diazepin-10-yl)amino)propyl)thiazole-2,5-dicarboxamide], the “in vivo epimerization at the chiral carbon in the 7-membered ring” value in data set [1] (rat, monkey and dog models, PO) is “exhibits epimerization in vivo; also recorded: observed in all three models”. Further, the “exposures and PK (other than epimerization) across species” value in data set [1] (rats, monkeys, dogs) was “consistent”. Further, in data set [2] (15 mg/kg), the IgG2a level entry is listed as “Trends to lower Ig titers”, the IgG2b level entry was “Trends to lower Ig titers” and the IgM level result is “Trends to lower Ig titers”. In data set [2] (15 mg/kg orally twice daily), the “disease score (EAE severity score)” value is listed as “significant reduction”. In addition, in data set [2] (30 mg/kg), the IgA entry was “lower total IgG1 and IgA trend”; the IgG2a titer entry is on record as “Significant reduction”; the IgG2b titer result is recorded as “Significant reduction”; the IgG3 titer result is given as “Significant reduction”. In data set [2] (30 mg/kg), the IgM titer result is “Significant reduction”; the “total IgG1” value was “lower total IgG1 and IgA trend”. In data set [2] (30 mg/kg orally twice daily), the “disease score (EAE severity score)” value is reported as “significant reduction”. Further, the “total Ig levels” value in data set [2] (EAE induced mice) was “significantly inhibited”. In addition, the “clinical signs of EAE” value in data set [2] (oral, twice daily, starting at day 13 of the treatment) was “significantly reduced”. Further, the “anti-MOG antibodies in serum” value in data set [2] (quantitative ELISA) was “significant reduction”. For the same molecule, in data set [3], the “clinical signs of CIA” value was “significantly reduced”. Moreover, the “inhibition of nuclear translocation of TNFα-GFP” value against human SPPL2a is “inhibited; also recorded: comparable and significant TNFα-GFP inhibition of nuclear translocation”.

Source of the values: patent US20250263416A1, “SPPL2a INHIBITORS” (Incyte Corporation, priority 2024, published 2025).
